Laboratory results reported in the supplement of paper PMC10307832.

Assays:
Assay in all cases: relative viability (nuclei count vs DMSO), 5 days (fraction); higher = more cells survive
CX-5461 + OSI-027 = compound: Cc1cnc(CNC(=O)c2c(=O)c3ccc(N4CCCN(C)CC4)nc3n3c2sc2ccccc23)cn1 [CX-5461] + COc1cccc2cc(-c3nc([C@H]4CC[C@H](C(=O)O)CC4)n4ncnc(N)c34)[nH]c12 [OSI-027] (partner 0.5 µM)
Method in brief: (§1)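 Cells from lung cancer lines were seeded into 1536-well plates and, one day later, dosed by pin tool. Treatments were either a single drug or a fixed dose of an anchor drug with five library-drug doses (not always all listed) in √10 steps. After 5 days, nuclei were stained in a one-step fixation (final 0.05% Triton X-100, 1% formaldehyde, 1 ug/ml Hoechst) and counted on 4× images, and relative viability is the treated-to-vehicle nuclei ratio, as the median of duplicate plates.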

CX-5461 + Vorinostat = compound: Cc1cnc(CNC(=O)c2c(=O)c3ccc(N4CCCN(C)CC4)nc3n3c2sc2ccccc23)cn1 [CX-5461] + O=C(CCCCCCC(=O)Nc1ccccc1)NO [Vorinostat] (partner 1 µM)
Method in brief: as §1

CX-5461 + Lapatinib = compound: Cc1cnc(CNC(=O)c2c(=O)c3ccc(N4CCCN(C)CC4)nc3n3c2sc2ccccc23)cn1 [CX-5461] + CS(=O)(=O)CCNCc1ccc(-c2ccc3ncnc(Nc4ccc(OCc5cccc(F)c5)c(Cl)c4)c3c2)o1 [Lapatinib] (partner 2 µM)
Method in brief: as §1

CX-5461 + Pemetrexed = compound: Cc1cnc(CNC(=O)c2c(=O)c3ccc(N4CCCN(C)CC4)nc3n3c2sc2ccccc23)cn1 [CX-5461] + Nc1nc2[nH]cc(CCc3ccc(C(=O)N[C@@H](CCC(=O)O)C(=O)O)cc3)c2c(=O)[nH]1 [Pemetrexed] (partner 0.2 µM)
Method in brief: as §1

UMC-11
relative viability (CX-5461 + OSI-027; first compound 0.01 µM): 0.542
relative viability (CX-5461 + OSI-027; first compound 0.03162 µM): 0.431
relative viability (CX-5461 + OSI-027; first compound 0.1 µM): 0.389
relative viability (CX-5461 + OSI-027; first compound 0.3162 µM): 0.475
relative viability (CX-5461 + OSI-027; first compound 1 µM): 0.274
relative viability (CX-5461 + Vorinostat; first compound 0.01 µM): 0.338
relative viability (CX-5461 + Vorinostat; first compound 0.03162 µM): 0.35
relative viability (CX-5461 + Vorinostat; first compound 0.1 µM): 0.384
relative viability (CX-5461 + Vorinostat; first compound 0.3162 µM): 0.398
relative viability (CX-5461 + Vorinostat; first compound 1 µM): 0.202
relative viability (CX-5461 + Lapatinib; first compound 0.01 µM): 1.07
relative viability (CX-5461 + Lapatinib; first compound 0.03162 µM): 1.01
relative viability (CX-5461 + Lapatinib; first compound 0.1 µM): 0.855
relative viability (CX-5461 + Lapatinib; first compound 0.3162 µM): 0.454
relative viability (CX-5461 + Lapatinib; first compound 1 µM): 0.269
relative viability (CX-5461 + Pemetrexed; first compound 0.01 µM): 0.825
relative viability (CX-5461 + Pemetrexed; first compound 0.03162 µM): 0.871
relative viability (CX-5461 + Pemetrexed; first compound 0.1 µM): 0.722
relative viability (CX-5461 + Pemetrexed; first compound 0.3162 µM): 0.763
relative viability (CX-5461 + Pemetrexed; first compound 1 µM): 0.408
